Source: US9834525B2, “Inhibitors of paxillin function and related compositions and methods” (UNIVERSITY OF TENNESSEE RESEARCH FOUNDATION, priority 2015, dated 2017)
Entries after “also recorded” stand apart in the source; their conditions may differ.

Experiments:
[1] = test system: retinal endothelial cells (REC); assay: REC attachment assay; assay type: cell-based, human; settings: increasing concentrations (100 nM to 1 μM), six hours
Description: Adhesive interactions with extracellular matrix proteins rely on focal adhesion proteins engaging with integrins to strengthen and maintain cell contacts. In the transwell migration assay system, initial cell-attachment to the porous membrane was relied upon in order to obtain a measure of cells that have migrated through to the underside of the well. Since compound (II-4) was in direct contact with cells prior to being seeded onto the transwell membranes, the potential of compound (II-4) to impede the attachment of RECs to the membranes was investigated. […] However, investigation of integrin-mediated signaling may be of interest to further evaluate and characterize compound (II-4)'s potential role in disrupting cross-talk between growth-factor and integrin-mediated signaling during pathological retinal angiogenesis.
FIG. 19: REC attachment assay. Increasing concentrations of compound (II-4) with suspended RECs were seeded to 96-wells to investigate inhibition of REC-adherence to attachment-factor surfaces. […] (P>0.05; n=8).

paxillin (pY118) = assay: Western blot of VEGF-induced paxillin Y118 phosphorylation in REC; assay type: cell-based, human
Protocol: REC, Mel 270, OMM 2.5 under Hepatocyte Growth Factor (HGF) or Vascular Endothelial Growth Factor (VEGF) stimulation conditions: Cell lysates were collected in RIPA lysis buffer (50 mM Tris-HCl, pH 7.4, 150 mM NaCl, 2 mM EDTA, 1% Nonidet P-40, 0.1% SDS) with protease 1× inhibitor cocktail (Roche; Indianapolis, Ind.). Lysates were kept on ice and centrifuged at 10,000×g×10 minutes and total protein was measured using the BCA assay (Pierce, Rockford, Ill.). Protein samples were mixed with 4×LDS loading buffer with 2.5% 2-mercaptoethanol (Sigma-Aldrich), heated to 70° C. for 10 minutes, and loaded on NuPAGE 4-12% Bis-Tris gel (Invitrogen, Carlsbad, Calif.). Immunoblotting was performed with nitrocellulose membranes (Bio-Rad, Hercules, Calif.) at 170-mA start and 110-mA end at 25 V for two hours in NuPAGE transfer buffer (Invitrogen) containing 20% methanol. Membranes were blocked using Odyssey blocking buffer (LI-COR; Lincoln, Nebr.) for one hour at room temperature with gentle shaking Membranes were then incubated at 4° C. with specific primary antibodies (1:1000) overnight. Cellular protein was normalized using rabbit-GAPDH or mouse-α-Tubulin [1:20,000] (Cell Signaling, Danvers, Mass.; LI-COR, respectively). Secondary antibodies (IRDye 800CW goat anti-rabbit and IRDye 680LT goat anti-mouse) [1:10,000] were incubated in the dark at room temperature for 45 minutes. Dual-channel infrared scan and quantitation of immunoblots were conducted using the ODYSSEY Sa infrared imaging system with Image Studio (Ver. 3.1.4) (LI-COR).
The α4 subunit of the cytoplasmic tail of VLA-4 interacts with the cytoskeletal adaptor paxillin, merging intracellular signaling events that drive cellular proliferation and migration (FIG. 13). Compound (II-4) inhibits phosphorylation of paxillin at Y118 (pY118) in the LD-region that interacts with the α4 subunit of VLA-4. To confirm the inhibition of pY118 of paxillin after use of compound (II-4) retinal endothelial cells (REC) were activated with Vascular Endothelial Growth Factor (VEGF) at 50 ng/mL in the presence or absence (vehicle) of compound (II-4) at a concentration of […] for 4-hrs. […] VEGF-induced pY118 was prevented by treatment with compound (II-4) [VEGF-REC treatment versus untreated, *p<0.005; VEGF-induced versus compound (II-4) treatment, **p<0.05—FIG. 13C].
To gain insight into the mechanistic basis for this phenotype, the effect of compound (II-4) on the Src/FAK/paxillin/ERK signalsome in RECs under VEGF was examined. […] Next, characterization of the potential of compound (II-4) to affect FA disassembly through inactivation of ERK was explored. […]
FIG. 13: Targeting the alpha-4 subunit of VLA-4 signaling through inhibition of paxillin. […] Phosphorylation measured by Western Blot. […]

SMILES: COc1cc(C2OC(=O)Nc3c2ccc2ccccc32)cc(OC)c1OC (stereo not drawn) [compound II-4]
- attachment of RECs to attachment-factor coated wells [1]: did not impede the attachment
- VEGF-induced PaxY118 phosphorylation (FIG. 20) (paxillin (pY118); REC under VEGF, compound (II-4) 500 nM, SU6656 1 μM): able to inhibit; also recorded: reduced
- VEGF-induced paxillin phosphorylation (pY118) (paxillin (pY118); REC, VEGF 50 ng/mL, 4 hrs, inhibitor 1 μM (printed 104)): prevented; also recorded: reduced
